The values that follow come from patent publication EP3074389B1, “QUINOLINE DERIVATIVES AS BROMODOMAIN INHIBITORS” (Gilead Sciences, Inc., priority 2013, dated 2015).

As usually defined, the Kd is the constant that tells how readily two partners part at equilibrium.

One test deals with BRD4 domain 1 (Homo sapiens, UniProt O60885). The test can be described thus: Kd determination of inhibitors binding to BRD4 domain 1 (Epic label-free platform). The conditions noted are these: direct binding to immobilized BRD4 domain 1; tripling dilution series from 20µM; about 1hr equilibrium; rounded to whole number; read-out: Epic Kd BRD41. How it is done:
(§1) Kd Determination of Inhibitors Binding to BRD4 Domain 1 and Domain 2
(§2) The binding of small molecule inhibitors to either BRD4 domain 1 or domain 2 were determined using the Epic, high-throughput, label-free platform (Corning, Lowell, MA). The Epic instrument incorporates an evanescent waveguide sensor within each well of its proprietary 384-well microplates. Direct binding of inhibitors to BRD4 immobilized onto the microplate well surface can be detected by exposing the waveguide to a broadband light source. The resulting resonant wavelength shift (measured in picometers (pm)) is proportional to the mass bound to the surface. Epic biochemical plates (Corning, Lowell, MA) were activated by adding 15 µL/well of 200 mM EDC and 50 mM Sulfo-NHS (Pierce Thermo Scientific, Rockford, IL) and incubated for 60 minutes at room temperature. Plates were washed three times with MilliQ water and dried by centrifugation (1 minute at 400 rpm). BRD4 immobilization was accomplished by resuspending the protein at a concentration of 150 µg/mL in 20 mM HEPES (pH 7) and adding 10 µL/well. […] Compound/inhibitor binding was determined by calculating difference between the baseline (first read) and second read. The resulting binding response was fitted to a single site binding isotherm in order to determine an equilibrium dissociation constant (Kd).

The target of another test is BRD4 domain 2 (Homo sapiens, UniProt O60885). Description: Kd determination of inhibitors binding to BRD4 domain 2 (Epic label-free platform). The conditions noted are these: direct binding to immobilized BRD4 domain 2; tripling dilution series from 20µM; about 1hr equilibrium; rounded to whole number. On the procedure:
as §1, §2

On to `Cc1noc(C)c1-c1cc(S(=O)(=O)NC2CCCC2)c2cc(NCc3cccnc3)c(=O)[nH]c2c1` [Compound 67, N-cyclopentyl-7-(3,5-dimethylisoxazol-4-yl)-2-oxo-3-((pyridin-3-ylmethyl)amino)-1,2-dihydroquinoline-5-sulfonamide], for which the Kd at BRD4 domain 1 amounted to 0.444 µM; on BRD4 domain 2, 0.404 µM.

For the compound `Cc1noc(C)c1-c1cc(S(=O)(=O)N[C@@H]2CCC[C@H]2O)c2ccc(=O)[nH]c2c1` [Compound 82, 7-(3,5-dimethylisoxazol-4-yl)-N-((1R,2R)-2-hydroxycyclopentyl)-2-oxo-1,2-dihydroquinoline-5-sulfonamide], the Kd amounted to 1.92 µM at BRD4 domain 1 and 1.9 µM on BRD4 domain 2.

On to `Cc1noc(C)c1-c1cc(S(=O)(=O)N[C@@H]2CCC[C@H]2C(=O)NCc2nccn2C)c2cccnc2c1` [Compound 42, (1R,2R)-2-(7-(3,5-dimethylisoxazol-4-yl)quinoline-5-sulfonamido)-N-((1-methyl-1H-imidazol-2-yl)methyl)cyclopentan ecarboxamide], for which the results for the Kd at BRD4 domain 1 and at BRD4 domain 2 were 16.2 µM and 6.84 µM, respectively.

Take `Cc1noc(C)c1-c1cc(S(=O)(=O)NC2CCCC2)c2cc(NCC(O)CO)c(=O)[nH]c2c1` (stereo not drawn) [Compound 93, N-cyclopentyl-3-((2,3-dihydroxypropyl)amino)-7-(3,5-dimethylisoxazol-4-yl)-2-oxo-1,2-dihydroquinoline-5-sulfonamide]: the Kd at BRD4 domain 1 was found to be 0.951 µM; on BRD4 domain 2 it was 0.417 µM.

In the case of `Cc1noc(C)c1-c1cc(S(=O)(=O)N[C@H]2C[C@@H](NC(=O)OC(C)(C)C)C2)c2cccnc2c1` [Compound 25, tert-butyl ((1s,3s)-3-(7-(3,5-dimethylisoxazol-4-yl)quinoline-5-sulfonamido)cyclobutyl)carbamate], the Kd was 16.2 µM at BRD4 domain 1 and more than 20 µM at BRD4 domain 2.

For the compound `Cc1noc(C)c1-c1cc(S(=O)(=O)N[C@H]2CC[C@@H](O)C2)c2cccnc2c1` [Compound 19, 7-(3,5-dimethylisoxazol-4-yl)-N-((1S,3R)-3-hydroxycyclopentyl)q uinoline-5-sulfonamide], the dissociation constant Kd came out at 16.6 µM on BRD4 domain 1 and 7.72 µM at BRD4 domain 2.

With `Cc1noc(C)c1-c1cc(S(=O)(=O)N[C@@H]2CCC[C@H]2C(=O)NCCN)c2cccnc2c1` [Compound 72, (1R,2R)-N-(2-aminoethyl)-2-(7-(3,5-dimethylisoxazol-4-yl)quinoline-5-sulfonamido)cyclopen tanecarboxamide], the Kd at BRD4 domain 1 amounted to 1.44 µM; on BRD4 domain 2, 2.33 µM.

Consider `Cc1noc(C)c1-c1cc(S(=O)(=O)NC2(C)CCCC2)c2cccnc2c1` [Compound 24, 7-(3,5-dimethylisoxazol-4-yl)-N-(1-methylcyclopentyl)qui noline-5-sulfonamide], for which the Kd on BRD4 domain 1 was 3.55 µM; on BRD4 domain 2 it was 2.11 µM.

`Cc1noc(C)c1-c1cc(S(=O)(=O)NC2CCCC2)c2cc(NCC(C)(C)O)c(=O)[nH]c2c1` [Compound 98, N-cyclopentyl-7-(3,5-dimethylisoxazol-4-yl)-3-((2-hydroxy-2-methylpropyl)amino)-2-oxo-1,2-dihydroquinoline-5-sulfonamide]: the Kd on BRD4 domain 1 worked out at 1.03 µM; on BRD4 domain 2, 0.545 µM.

In the case of `Cc1noc(C)c1-c1cc(S(=O)(=O)NC2CCCC2)c2cc(N3CCCCC3)c(=O)[nH]c2c1` [Compound 60, N-cyclopentyl-7-(3,5-dimethylisoxazol-4-yl)-2-oxo-3-(piperidin-1-yl)-1,2-dihydroquinoline-5-sulfonamide], the Kd was found to be 2.23 µM at BRD4 domain 1 and 1.9 µM at BRD4 domain 2.

With `Cc1noc(C)c1-c1cc(S(=O)(=O)N[C@@H]2CCC[C@H](O)C2)c2cccnc2c1` [Compound 20, 7-(3,5-dimethylisoxazol-4-yl)-N-((1R,3S)-3-hydroxycyclohexyl)qu inoline-5-sulfonamide], the Kd on BRD4 domain 1 amounted to 5.75 µM; on BRD4 domain 2, 4.79 µM.

Consider `Cc1noc(C)c1-c1cc(S(=O)(=O)NC2CCCC2)c2nccnc2c1` [Compound 86, N-cyclopentyl-7-(3,5-dimethylisoxazol-4-yl)quinoxaline-5-sulfonamide], for which the Kd on BRD4 domain 1 is 3.48 µM; on BRD4 domain 2 it was 2.46 µM.
